# B1: PltM (Pseudomonas protegens Pf-5) (protein)
# chain: MNQYDVIIIGSGIAGALTGAVLAKSGLNVLILDSAQHPRFSVGEAATPESGFLLRLLSKRFDIPEIAYLSHPDKIIQHVGSSACGIKLGFSFAWHQENAPSSPDHLVAPPLKVPEAHLFRQDIDYFALMIALKHGAESRQNIKIESISLNDDGVEVALSNAAPVKAAFIIDAAAQGSPLSRQLGLRTTEGLATDTCSFFTHMLNVKSYEDALAPLSRTRSPIELFKSTLHHIFEEGWLWVIPFNNHPQGTNQLCSIGFQFNNAKYRPTEAPEIEFRKLLKKYPAIGEHFKDAVNAREWIYAPRINYRSVQNVGDRFCLLPQATGFIDPLFSRGLITTFESILRLAPKVLDAARSNRWQREQFIEVERHCLNAVATNDQLVSCSYEAFSDFHLWNVWHRVWLSGSNLGSAFLQKLLHDLEHSGDARQFDAALEAVRFPGCLSLDSPAYESLFRQSCQVMQQAREQARPVAETANALHELIKEHEAELLPLGYSRISNRFILKV
# Legend:
# [1] = target: T1, PltM (Pseudomonas protegens, UniProt Q4KCZ3); test: Optimized in vitro PltM halogenation assay (PltM, SsuE, GDH), overnight overall yield by HPLC; type: biochemical; settings: for % overall conversion (trial 1) / % overall conversion (trial 2): optimized chlorination reaction, sum of all chlorinated products; for % overall conversion (trial 1): first of two independent reactions; for % overall conversion (trial 2): second of two independent reactions; for conversion upon overnight reaction: optimized conditions
# Experimental: To increase production of halogenated molecules and decrease the amount of NADPH required, the above in vitro assay was optimized by using an additional enzyme, glucose dehydrogenase (GDH). […] The overall yield of halogenation products was determined for reactions run overnight for several substrates (Table 8). Conversion of the substrate to halogenated products was monitored by HPLC at λ=275-320 nm, where the absorbance of molecules is not affected by halogenation, and quantified as fraction of reaction species (%).
# (§1) The time course experiments were performed in duplicate. Compound 1 was unstable under these optimized conditions, and it was not tested. The in vitro analysis of K87A mutant was performed overnight in 100 μL reaction mixture by using the compound 11 as a substrate. Wild-type PltM was used as a positive control, and no enzyme reaction was used as a negative control. In all above reactions, the compounds were extracted with EtOAc (4×100 μL) and dried under gentle air flow.
# (§2) The halogenation reaction products were analyzed by HPLC or LC-MS by injecting 10 μL of each sample. The compounds were separated by Reversed-phase HPLC at the flow rate of 0.2 mL/min by using the following program: eluent A=H2O; eluent B=MeCN; gradient=2% B for 5 min, increase to 100% B over a 30 min period, stay at 100% B for 9 min, decrease to 2% B over a 1 min period, and re-equilibrate the column at 2% B for 30 min.
# (§3) For HPLC analysis, the molecules were observed by absorbance at λ=275 nm as described above. As necessary, the following mass spectrometer was operated in negative and positive modes with the following parameters: For negative mode, mass range, 80-600 m/z in profile mode; temperature, 550° C. and ion spray voltage floating, −4500 V, and for positive mode, mass range, 80-600 m/z in profile mode; temperature, 550° C. and ion spray voltage floating, 4500 V. The presence of each compound was analyzed by extracted ion chromatograph (XIC) with the expected mass ±0.05 Da for Assay 1 and Assay 2 and ±0.005 Da for Assay 3 (FIGS. 2A-C, 8-13, and 17-37; Tables 3-4 and 7).
# [2] = target: T1, PltM; type: biochemical; settings: optimized conditions; for preference for bromination versus iodination: time course
# Experimental: To increase production of halogenated molecules and decrease the amount of NADPH required, the above in vitro assay was optimized by using an additional enzyme, glucose dehydrogenase (GDH). […] Conversion of the substrate to halogenated products was monitored by HPLC at λ=275-320 nm, where the absorbance of molecules is not affected by halogenation, and quantified as fraction of reaction species (%).
# as §1, with “Compound 1 was unstable under these optimized conditions, and it was not tested.” left out
# To determine the halogenation preference, the kinetic parameters were obtained by the global nonlinear regression analysis of all reaction species using DynaFit software for the following halogenation mechanism:
# where E, S, P1, P2 are enzyme, substrate, mono- and dihalogenated product, respectively.
# [3] = target: T1, PltM; test: In vitro PltM halogenation assay with a single halide salt, substrate profile (Assay 1a-1d), LC-MS; type: biochemical; settings: for iodination by PltM (products identified by LC-MS): NaI as halide source (Assay 1d); for chlorination by PltM (products identified by LC-MS): NaCl as halide source (Assay 1b)
# Experimental: The halogenation assays were carried out similarly to a recently described procedure. For substrate profile determination (Assay 1), 100 μL reactions were carried out in 30 mM sodium phosphate pH 7.4. As a halide source, 200 mM of either NaF (Assay 1a), NaCl (Assay 1b), NaBr (Assay 1c), or NaI (Assay 1d) was used. To ensure that PltM is incapable of fluorinating, an additional 200 μL reaction with 300 mM NaF was run. A 200 μL reaction with 400 mM NaBr was also run to ensure no additional bromination reaction occurred. Each reaction also contained a specified substrate (0.5 mM), FAD (0.2 mM), NADPH (5 mM), PltM (5.5 μM), and SsuE (5.0 μM). The reactions were initiated by adding NADPH under N2. The reaction tubes were tightly closed to avoid contact with air. The reaction mixtures were incubated at 25° C. for 3 h prior to extraction with EtOAc (4×100 μL). The organic layer was dried by a gentle flow of air, and the residue was dissolved in MeOH to prepare 1-10 μg/mL samples for LC-MS analysis.
# as §2, §3
# [4] = substrate: OCc1cc(O)cc(O)c1; test: purified protein, by the assay type; type: biochemical; settings: pH 7.4
# [5] = substrate: Oc1cccc(O)c1; test: purified protein, by the assay type; type: biochemical; settings: pH 7.4
# [6] = substrate: OCc1cc(O)cc(O)c1Cl; test: purified protein, by the assay type; type: biochemical; settings: other: halogen Cl; labelled species converted to next chlorinated product (for 16: to Cl-16a); pH 7.4
# [7] = substrate: Oc1ccc(Cl)c(O)c1; test: purified protein, by the assay type; settings: other: halogen Cl; labelled species converted to next chlorinated product (for 16: to Cl-16a); pH 7.4
# [8] = substrate: Nc1cccc(O)c1; test: purified protein, by the assay type; settings: pH 7.4
# [9] = other: halogen Br, labelled species converted to next brominated product (for 16: to Br-16a)
# [10] = other: halogen Cl, labelled species converted to next chlorinated product (for 16: to Cl-16a)
# [11] = other: halogen Br, 16/Br-16b (second mono-brominated product)
# [12] = other: halogen Cl, 16/Cl-16b (second mono-chlorinated product)
molecule,measurement,setting,value
Oc1cccc(O)c1 [Compound 3],% overall conversion (trial 1),[1]; overnight,"100, 100%"
same,% overall conversion (trial 2),[1]; overnight,"100, 100%"
same,conversion upon overnight reaction,[1],100%
same,dibromination by PltM,[2],dibrominated
same,preference for bromination versus iodination,[2],preference for bromination
Cc1cc(O)cc(O)c1 [Compound 9],% overall conversion (trial 1),[1]; overnight,97%
same,% overall conversion (trial 2),[1]; overnight,96%
OCc1cc(O)cc(O)c1 [Compound 11],bromination by PltM (products identified by LC-MS),[3]; NaBr as halide source (Assay 1c),"Mono-bromination of 11 was observed, but not dibromination"
same,fluorination by PltM (products identified by LC-MS),[3]; NaF as halide source (Assay 1a),not dibromination or fluorination
same,% overall conversion (trial 1),[1]; overnight,"100, 100%"
same,% overall conversion (trial 2),[1]; overnight,"100, 100%"
same,conversion upon overnight reaction,[1],100%
same,product with wild-type PltM,"[1]; overnight, conditions of the K87A analysis (positive control)",yields diCl-11
same,preference for bromination versus iodination,[2],for iodination
CC(=O)c1c(O)cc(O)cc1O [Compound 15],% overall conversion (trial 1),[1]; overnight,34%
same,% overall conversion (trial 2),[1]; overnight,7%
Nc1cccc(O)c1 [Compound 16],% overall conversion (trial 1),[1]; overnight,"100, 100%"
same,% overall conversion (trial 2),[1]; overnight,"100, 100%"
same,conversion upon overnight reaction,[1],100%
same,dibromination by PltM,[2],dibrominated
same,preference for bromination versus iodination,[2],preference for bromination
Nc1cccc(N)c1 [Compound 18],% overall conversion (trial 1),[1]; overnight,"100, 100%"
same,% overall conversion (trial 2),[1]; overnight,"100, 100%"
"N[C@@H](Cc1c[nH]c2ccccc12)C(=O)O [Compound 20, L-Trp]",halogenation by PltM (substrate profile),[3]; tested for chlorination and iodination,not observed
"CC(C)(C)NCC(O)c1cc(O)cc(O)c1 (centres unmarked) [Compound 21, terbutaline, reference compound]",iodination by PltM (products identified by LC-MS),[3],both mono and di
"CC(Cc1ccc(O)cc1)NCC(O)c1cc(O)cc(O)c1 (centres unmarked) [Compound 22, fenoterol, reference compound]",iodination by PltM (products identified by LC-MS),[3],mono-iodinated
"Oc1ccc(C=Cc2cc(O)cc(O)c2)cc1 [Compound 23, resveratrol]",chlorination by PltM (products identified by LC-MS),[3],mono-chlorinated
same,iodination by PltM (products identified by LC-MS),[3],mono-iodinated
same,% overall conversion (trial 1),[1]; overnight,24%
same,% overall conversion (trial 2),[1]; overnight,20%
catechin [Compound 24],chlorination by PltM (products identified by LC-MS),[3],mono-chlorinated
same,iodination by PltM (products identified by LC-MS),[3],mono-iodinated
B1,Km,[4]; [9],(1.1 ± 0.2) × 10^3 μM
same,kcat,[4]; [9],0.004 ± 0.000333 s⁻¹
same,kcat/Km,[4]; [9],3.67 ± 0.333 M⁻¹ s⁻¹
same,Km,[4]; [10],8.4 ± 0.4 µM
same,kcat,[4]; [10],0.0267 ± 0.00167 s⁻¹
same,kcat/Km,[4]; [10],3170 ± 167 M⁻¹ s⁻¹
same,Km,[5]; [9],0.71 ± 0.2 µM
same,kcat,[5]; [9],0.0317 ± 0.00167 s⁻¹
same,kcat/Km,[5]; [9],45000 ± 10000 M⁻¹ s⁻¹
same,Km,[5]; [10],(7.6 ± 1.3) × 10^−2 μM
same,kcat,[5]; [10],2.3 ± 0.1^a min^−1
same,kcat/Km,[5]; [10],30 ± 5 ^ min^−1μM^−1
same,Km,[6],0.44 ± 0.02 µM
same,kcat,[6],0.003 ± 0.000167 s⁻¹
same,kcat/Km,[6],6830 ± 333 M⁻¹ s⁻¹
same,Km,[7],0.11 ± 0.02 µM
same,kcat,[7],0.00667 s⁻¹
same,kcat/Km,[7],58300 M⁻¹ s⁻¹
same,Km,[8]; [11],151 ± 20 µM
same,kcat,[8]; [11],0.0367 s⁻¹
same,kcat/Km,[8]; [11],250 M⁻¹ s⁻¹
same,Km,[8]; [9],151 ± 20 µM
same,kcat,[8]; [9],0.00783 s⁻¹
same,kcat/Km,[8]; [9],51.7 M⁻¹ s⁻¹
same,Km,[8]; [12],1.1 ± 0.3 µM
same,kcat,[8]; [12],0.00367 s⁻¹
same,kcat/Km,[8]; [12],3170 M⁻¹ s⁻¹
same,Km,[8]; [10],1.1 ± 0.3 µM
same,kcat,[8]; [10],0.00583 s⁻¹
same,kcat/Km,[8]; [10],5170 M⁻¹ s⁻¹

# Source: US20200299671A1, “IMMOBILIZED MULTI-ENZYMATIC HALOGENATION SYSTEM” (priority 2019, published 2020)
